Patent US11299458B2, “Crystalline compounds” (OTSUKA AMERICA PHARMACEUTICAL, INC., priority 2015, dated 2022)
Several values for one entry are separate records, joined by “and”; a condition that tells them apart may be missing. Identical values can stand only once.

How the values were obtained:
Assay type in all cases: physicochemical
[1] = Accelerated stress conditions (relative humidity stress), solid form by XRPD; conditions: two weeks
Description: Relative Humidity Stress: Solids are stored at approximately 40° C./75% RH condition for a measured time period by placing the solids into a vial inside a sealed temperature/humidity chamber at the controlled condition. Samples are analyzed after removal from the stress environment.
Crystalline Forms A, B, and C are exposed to accelerated stress conditions for two weeks (Table 18 below). […] Crystalline Form C is metastable at this condition.
Experimental: Relative Humidity Stress
The following relative humidity jars (saturated salt solutions are used to generate desired relative humidity) are utilized: 75% RH (NaCl) and 56% RH (NaBr) (Nyqvist, H., Int. J. Pharm. Tech. &Prod. Mfr. 1983, 4 (2), 47-48).

[2] = Solution calorimetry (SolCal), heats of solution in methanol; conditions: methanol, 25° C., hydrochloride
Description: For each test, two heats of solution are obtained—one calculated using a calibration preceding the sample analysis and one calculated using a calibration following the sample analysis. Clear solutions are observed after each test.
Solution calorimetry is performed using a Thermometric 2225 Precision Solution calorimeter, a semi-adiabatic calorimeter. Solution calorimeter System v.1.2 software is used. Samples are weighed into glass crushing ampoules and are sealed using silicone rubber plugs and hot wax. Experiments are carried out in 100 mL of methanol at 25° C. The measurement of the heats of solution of the samples is both preceded and followed by calibrations using an internal heater. The heats of solution are calculated using dynamic of calibration model.

[3] = Storage stability of solid form, XRPD after storage
Description: Six scale-up attempts are conducted to prepare Crystalline Form C by cooling in isopropanol on approximately 50-150 mg scale (Table 11) and the solids tested by XRPD. At refrigerator temperature, precipitated solids yield Form B. Seeding with Form C after cooling in the refrigerator (no solids observed) and before placing in the freezer yield XRPD pattern of Form C with B peaks. Precipitation at freezer temperature results in solids with an XRPD pattern of Form C with A peaks. A solution placed in the freezer after cooling to room temperature with a lower concentration (7 mg/mL compared to 10 mg/mL) yields Form B. By crash cooling (ambient solution placed into dry ice/isopropanol), solids generated are a mixture of Forms B and A. The last attempt on an approximate 50-mg scale generates a mixture of Forms A and C.
An elliptically graded multilayer mirror is used to focus Cu Kα X-rays through the specimen and onto the detector. Prior to the analysis, a silicon specimen (NIST SRM 640e) is analyzed to verify the observed position of the Si 111 peak is consistent with the NIST-certified position. A specimen of the sample is sandwiched between 3-μm-thick films and analyzed in transmission geometry. A beam-stop, short antiscatter extension, and antiscatter knife edge are used to minimize the background generated by air. Soller slits for the incident and diffracted beams are used to minimize broadening from axial divergence. The diffraction pattern is collected using a scanning position-sensitive detector (X'Celerator) located 240 mm from the specimen and Data Collector software v. 2.2b. Data acquisition parameters are: Panalytical X-Pert Pro MPD PW3040 Pro, X-ray Tube: Cu (1.54059 Å), Voltage: 45 kV, Amperage: 40 mA, Scan Range: 1.00-39.99° 2θ, Step Size: 0.017° 2θ, Collection Time: 719 s, Scan Speed: 3.3°/min., Slit: DS: ½°, SS: null, Revolution Time: 1.0 s, Mode: Transmission.

Cl.c1ccc2cc([C@]34CNC[C@H]3C4)ccc2c1 [Crystalline Form A, (1R,5S)-1-(naphthalen-2-yl)-3-azabicyclo[3.1.0]hexane hydrochloride]
solid form by XRPD after accelerated stress ([1]; 30° C./56% RH): remain unchanged | solid form by XRPD after accelerated stress ([1]; 40° C./75% RH, hydrochloride): remain unchanged | average heat of solution ([2]; triplicate, endothermic): 48.618 J/g | average heat of solution ([2]; average of three replicates): 48.618 J/g | ΔH2 (heat of solution) ([2]; calculated using the calibration after breaking the sample vial, single replicates): 49.905 J/g and 50.168 J/g and 49.217 J/g | ΔH1 (heat of solution) ([2]; calculated using the calibration before breaking the sample vial, single replicates): 48.077 J/g and 46.050 J/g and 48.293 J/g | ΔHmean (heat of solution) ([2]; mean of the two calibrations, single replicates): 48.991 J/g and 48.109 J/g and 48.755 J/g | solid form by XRPD after long-term storage ([3]; long-term storage, product of Example 5): consistent with Crystalline Form A | XRPD Result after 22 days of ambient storage ([3]; solids from IPA CC (70° C. to dry ice/IPA), freezer/2 d, after 22 days of ambient storage): storage: C +
